Where two headings read alike, the source gives them in different places.
Molecular target: T1, BCL6 (Homo sapiens, UniProt P41182)
T1 construct: endogenous in cells; host or cells: T47D breast cancer epithelial cells
Assay: Immunofluorescence protocol for high content imaging of BCL6 (degradation) in T47D cells, 3 days compound treatment
Assay type: cell-based
Conditions: for DC50: read-out: Mean DC50 (nM)* category; for Dmax: read-out: Mean Dmax (%)** category
How it was run: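 T47D, RPMI1640/10% FBS; cpd 11-pt 3-fold, top 0.1 or 1 μM final; 3 d, 37° C. Fix 4% PFA, perm 0.1% Triton, block 3% BSA; anti-BCL6 1:300 o/n 4° C; Alexa-488 2°, CellMask-647, Hoechst. Imaged 10×, 4 fields/well.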

[1] = T47D cells, 3 days compound treatment

Structure (SMILES) | DC50 [1] [nM] | Dmax [1] [%] | Dmax (T47D) [%] | DC50 [nM]
CNC(=O)COc1cc2cc(Nc3nc(N4CCC(CN5CCC6(CC5)CN(c5ccc7c(c5)C(=O)N(C5CCC(=O)NC5=O)C7=O)C6)CC4)ncc3Cl)ccc2n(CCOC)c1=O (stereo not shown) [Compound 37, 2-{[6-({5-chloro-2-[4-({2-[2-(2,6-dioxopiperidin-3-yl)-1,3-dioxo-2,3-dihydro-1H-isoindol-5-yl]-2,7-diazaspiro[3.5]nonan-7-yl}methyl)piperidin-1-yl]pyrimidin-4-yl}amino)-1-(2-methoxyethyl)-2-oxo-1,2-dihydroquinolin-3-yl]oxy}-N-methylacetamide] | < 10 | 50 to 70 | – | –
CNC(=O)COc1cc2cc(Nc3nc(N4CCC(O[C@H]5C[C@H](N6CCC(c7c(C)cc8c(c7F)CN(C7CCC(=O)NC7=O)C8=O)CC6)C5)CC4)ncc3Cl)ccc2n(C(C)C)c1=O (stereo partly shown) [Compound 397, 2-({6-[(5-chloro-2-{4-[(1r,3r)-3-{4-[2-(2,6-dioxopiperidin-3-yl)-4-fluoro-6-methyl-1-oxo-2,3-dihydro-1H-isoindol-5-yl]piperidin-1-yl}cyclobutoxy]piperidin-1-yl}pyrimidin-4-yl)amino]-2-oxo-1-(propan-2-yl)-1,2-dihydroquinolin-3-yl}oxy)-N-methylacetamide] | – | – | ≥ 70 | < 10
CNC(=O)COc1cc2cc(Nc3nc(N4CCC5(CC4)CN(C(=O)C4CCN(c6cccc7c6CN(C6CCC(=O)NC6=O)C7=O)CC4)C5)ncc3Cl)ccc2n(C(C)C)c1=O (stereo not shown) [Compound 22, 2-[(6-{[5-chloro-2-(2-{1-[2-(2,6-dioxopiperidin-3-yl)-1-oxo-2,3-dihydro-1H-isoindol-4-yl]piperidine-4-carbonyl}-2,7-diazaspiro[3.5]nonan-7-yl)pyrimidin-4-yl]amino}-2-oxo-1-(propan-2-yl)-1,2-dihydroquinolin-3-yl)oxy]-N-methylacetamide] | < 10 | 50 to 70 | – | –
CNC(=O)COc1cc2cc(Nc3nc(N4CCC(O[C@H]5C[C@H](N6CC7(CCN(c8ccc9c(c8C)C(=O)N(C8CCC(=O)NC8=O)C9=O)CC7)C6)C5)CC4)ncc3Cl)ccc2n(C(C)C)c1=O (stereo partly shown) [Compound 418, 2-({6-[(5-chloro-2-{4-[(1r,3r)-3-{7-[2-(2,6-dioxopiperidin-3-yl)-4-methyl-1,3-dioxo-2,3-dihydro-1H-isoindol-5-yl]-2,7-diazaspiro[3.5]nonan-2-yl}cyclobutoxy]piperidin-1-yl}pyrimidin-4-yl)amino]-2-oxo-1-(propan-2-yl)-1,2-dihydroquinolin-3-yl}oxy)-N-methylacetamide] | – | – | ≥ 70 | < 10
CNC(=O)COc1cc2cc(Nc3nc(N4CCC(O[C@H]5C[C@H](N6CC7(CCN(c8ccc9c(c8)C(=O)N(C8CCC(=O)NC8=O)C9)CC7)C6)C5)CC4)ncc3Cl)ccc2n(C(C)C)c1=O (stereo partly shown) [Compound 377, 2-({6-[(5-chloro-2-{4-[(1r,3r)-3-{7-[2-(2,6-dioxopiperidin-3-yl)-3-oxo-2,3-dihydro-1H-isoindol-5-yl]-2,7-diazaspiro[3.5]nonan-2-yl}cyclobutoxy]piperidin-1-yl}pyrimidin-4-yl)amino]-2-oxo-1-(propan-2-yl)-1,2-dihydroquinolin-3-yl}oxy)-N-methylacetamide] | – | – | ≥ 70 | 50 to 100
CNC(=O)COc1cc2cc(Nc3cc(N4CCC(CN5CCC6(CN(c7ccc8c(c7OC)CN(C7CCC(=O)NC7=O)C8=O)C6)C(F)(F)C5)CC4)ncc3Cl)ccc2n(C(C)C)c1=O (stereo not shown) [Compound 232, 2-{[6-({5-chloro-2-[4-({2-[2-(2,6-dioxopiperidin-3-yl)-4-methoxy-1-oxo-2,3-dihydro-1H-isoindol-5-yl]-5,5-difluoro-2,7-diazaspiro[3.5]nonan-7-yl}methyl)piperidin-1-yl]pyridin-4-yl}amino)-2-oxo-1-(propan-2-yl)-1,2-dihydroquinolin-3-yl]oxy}-N-methylacetamide] | – | – | – | < 10
CNC(=O)COc1cc2cc(Nc3nc(N4CCC(O[C@H]5C[C@H](N6CCC7(CCN(c8ccc9c(c8)C(=O)N(C8CCC(=O)NC8=O)C9=O)CC7)C6)C5)CC4)ncc3Cl)ccc2n(C(C)C)c1=O (stereo partly shown) [Compound 362, 2-({6-[(5-chloro-2-{4-[(1r,3r)-3-{8-[2-(2,6-dioxopiperidin-3-yl)-1,3-dioxo-2,3-dihydro-1H-isoindol-5-yl]-2,8-diazaspiro [4.5]decan-2-yl}cyclobutoxy]piperidin-1-yl}pyrimidin-4-yl)amino]-2-oxo-1-(propan-2-yl)-1,2-dihydroquinolin-3-yl}oxy)-N-methylacetamide] | – | – | ≥ 70 | 10 to 50
CNC(=O)COc1cc2cc(Nc3nc(N4CCC(N5CCC6(C5)CN(C5CCN(c7ccc8c(c7)C(=O)N(C7CCC(=O)NC7=O)C8=O)CC5)C6)CC4)ncc3Cl)ccc2n(C(C)C)c1=O (stereo not shown) [Compound 224, 2-{[6-({5-chloro-2-[4-(2-{1-[2-(2,6-dioxopiperidin-3-yl)-1,3-dioxo-2,3-dihydro-1H-isoindol-5-yl]piperidin-4-yl}-2,6-diazaspiro[3.4]octan-6-yl)piperidin-1-yl]pyrimidin-4-yl}amino)-2-oxo-1-(propan-2-yl)-1,2-dihydroquinolin-3-yl]oxy}-N-methylacetamide] | – | – | ≥ 70 | 10 to 50
CNC(=O)COc1cc2cc(Nc3nc(N4CCC(O[C@H]5C[C@H](N6CC=C(c7ccc8c(c7Cl)CN([C@H]7CCC(=O)NC7=O)C8=O)CC6)C5)CC4)ncc3Cl)ccc2n(C(C)C)c1=O [Compound 428] | – | – | ≥ 70 | < 10
CNC(=O)COc1cc2cc(Nc3nc(N4CCC(O[C@H]5C[C@H](N6CCC(c7ccc8c(c7C)C(=O)N(C7CCC(=O)NC7=O)C8=O)CC6)C5)CC4)ncc3Cl)ccc2n(C(C)C)c1=O (stereo partly shown) [Compound 167, 2-({6-[(5-chloro-2-{4-[(1r,3r)-3-{4-[2-(2,6-dioxopiperidin-3-yl)-4-methyl-1,3-dioxo-2,3-dihydro-1H-isoindol-5-yl]piperidin-1-yl}cyclobutoxy]piperidin-1-yl}pyrimidin-4-yl)amino]-2-oxo-1-(propan-2-yl)-1,2-dihydroquinolin-3-yl}oxy)-N-methylacetamide] | < 10 | ≥ 70 | – | –
CNC(=O)COc1cc2cc(Nc3nc(N4CCC(O[C@H]5C[C@H](N6CCC(c7ccc8c(c7F)CN(C7CCC(=O)NC7=O)C8=O)CC6)C5)CC4)ncc3Cl)ccc2n(C(C)C)c1=O (stereo partly shown) [Compound 81, 2-({6-[(5-chloro-2-{4-[(1r,3r)-3-{4-[2-(2,6-dioxopiperidin-3-yl)-4-fluoro-1-oxo-2,3-dihydro-1H-isoindol-5-yl]piperidin-1-yl}cyclobutoxy]piperidin-1-yl}pyrimidin-4-yl)amino]-2-oxo-1-(propan-2-yl)-1,2-dihydroquinolin-3-yl}oxy)-N-methylacetamide] | < 10 | 50 to 70 | – | –
CNC(=O)COc1cc2cc(Nc3nc(N4CCC(C(C)(C)N5CCC6(CC5)CN(c5ccc7c(c5)CN(C5CCC(=O)NC5=O)C7=O)C6)CC4)ncc3Cl)ccc2n(C(C)C)c1=O (stereo not shown) [Compound 58, 2-{[6-({5-chloro-2-[4-(2-{2-[2-(2,6-dioxopiperidin-3-yl)-1-oxo-2,3-dihydro-1H-isoindol-5-yl]-2,7-diazaspiro[3.5]nonan-7-yl}propan-2-yl)piperidin-1-yl]pyrimidin-4-yl}amino)-2-oxo-1-(propan-2-yl)-1,2-dihydroquinolin-3-yl]oxy}-N-methylacetamide] | < 10 | ≥ 70 | – | –
CNC(=O)COc1cc2cc(Nc3nc(N4CCC(O[C@H]5C[C@H](N6CCN(CC7CCN(c8ccc9c(c8F)CN(C8CCC(=O)NC8=O)C9=O)CC7)CC6)C5)CC4)ncc3Cl)ccc2n(C(C)C)c1=O (stereo partly shown) [Compound 286, 2-({6-[(5-chloro-2-{4-[(1r,3r)-3-[4-({1-[2-(2,6-dioxopiperidin-3-yl)-4-fluoro-1-oxo-2,3-dihydro-1H-isoindol-5-yl]piperidin-4-yl}methyl)piperazin-1-yl]cyclobutoxy]piperidin-1-yl}pyrimidin-4-yl)amino]-2-oxo-1-(propan-2-yl)-1,2-dihydroquinolin-3-yl}oxy)-N-methylacetamide] | – | – | 50 to 70 | < 10
CNC(=O)COc1cc2cc(Nc3nc(N4CCC(CN5CCC6(CN(c7cc8c(c(OC)c7)C(=O)N(C7CCC(=O)NC7=O)C8)C6)C(F)(F)C5)CC4)ncc3Cl)ccc2n(C(C)C)c1=O (stereo not shown) [Compound 101, 2-{[6-({5-chloro-2-[4-({2-[2-(2,6-dioxopiperidin-3-yl)-7-methoxy-1-oxo-2,3-dihydro-1H-isoindol-5-yl]-5,5-difluoro-2,7-diazaspiro[3.5]nonan-7-yl}methyl)piperidin-1-yl]pyrimidin-4-yl}amino)-2-oxo-1-(propan-2-yl)-1,2-dihydroquinolin-3-yl]oxy}-N-methylacetamide] | < 10 | 50 to 70 | – | –

More lines, main results first:

DC50 [1] [nM] | Dmax [1] [%] | Structure (SMILES) | Dmax (T47D) [%] | DC50 [nM]
< 10 | 50 to 70 | CNC(=O)COc1cc2cc(Nc3nc(N4CCC(CN5CC6(CCN(c7cccc8c7C(=O)N(C7CCC(=O)NC7=O)C8=O)CC6(F)F)C5)CC4)ncc3Cl)ccc2n(C(C)C)c1=O (stereo not shown) [Compound 124, 2-{[6-({5-chloro-2-[4-({7-[2-(2,6-dioxopiperidin-3-yl)-1,3-dioxo-2,3-dihydro-1H-isoindol-4-yl]-5,5-difluoro-2,7-diazaspiro[3.5]nonan-2-yl}methyl)piperidin-1-yl]pyrimidin-4-yl}amino)-2-oxo-1-(propan-2-yl)-1,2-dihydroquinolin-3-yl]oxy}-N-methylacetamide] | – | –
< 10 | 50 to 70 | CNC(=O)COc1cc2cc(Nc3nc(N4CCC(CN5CC6(CCN(c7ccc8c(c7)C(=O)N(C7CCC(=O)NC7=O)C8=O)CC6(F)F)C5)CC4)ncc3Cl)ccc2n(C(C)C)c1=O (stereo not shown) [Compound 135, 2-{[6-({5-chloro-2-[4-({7-[2-(2,6-dioxopiperidin-3-yl)-1,3-dioxo-2,3-dihydro-1H-isoindol-5-yl]-5,5-difluoro-2,7-diazaspiro[3.5]nonan-2-yl}methyl)piperidin-1-yl]pyrimidin-4-yl}amino)-2-oxo-1-(propan-2-yl)-1,2-dihydroquinolin-3-yl]oxy}-N-methylacetamide] | – | –

Reference: patent US11986532B2 (Arvinas Operations, Inc., priority 2021, dated 2024)
